“Also recorded” adds a separate entry of the source. Marks after values point to notes of the source that are not given here.
Experiments:
MCF7 = assay: breast cancer cell viability after 72 h of doxorubicin and RARG agonists co-treatment; assay type: cell-based, human; details: MCF7, doxorubicin LD50 with agonist co-treatment, 10 μM, footnote: 1 μM each, 72 h; Vehicle 0.490
Method: (§2) 384-well plate-based cell viability, caspase 3/7 activity, and reactive oxygen species (ROS) assays. […] Luminescence was measured using a VarioSkan Lux Multi-Mode Reader (Thermo Scientific) with an integration time of 0.25 sec. 10 μM staurosporine (MedChemExpress) was used as a positive control. […] 10 μM staurosporine and 50 μM menadione (both MedChemExpress) was used as a positive control, respectively. Data were analyzed using Prism 7.0 software (GraphPad) using standard dose-response guidelines.
Breast cancer cell lines. Four human breast cancer cell lines were used, MCF7 (adenocarcinoma, ATCC HTB-22) and Hs 578T (carcinsarcoma, ATCC HTB-126) both cultured in RPMI 1640 (Corning) with 10% FBS (Opti-Gold, GenDEPOT), MDA-MB-231 (adenocarcinoma, ATCC HTB-26) and MDA-MB-468 (adenocarcinoma, ATCC HTB-131) both cultured in DMEM (Corning) with 10% FBS. All cells were cultured on uncoated tissue culture plates (Greiner) and passaged with TrypLE Express (Gibco).

[1] = test system: TOP2B, pERK and BCL2 in the hearts of mice; assay: Western blot of mouse hearts at three weeks after treatment; assay type: in vivo; details: doxorubicin plus oral agonist
Method: Western blot. We washed and harvested cells in cold PBS and collected them by centrifugation at 20,000 g for 10 min. at 4° C. Pellet was lysed in PBS containing 1% SDS and protease inhibitors (cOmplete, ROCHE) and sonicated (2 pulses of 12 sec at 125 Watt) to shear DNA. We centrifuged the samples at 20,000 g for 15 min. at RT to precipitate and discard the insoluble material and the protein concentration in the supernatant was quantified using BCA assay (Thermo Scientific) following manufacturer's instructions. 20 μg protein/sample were subject to SDS-PAGE in a 9% acrylamide gel for 45 min. at 180 V. and transferred to a PVDF membrane (Immobilon-P, Millipore) at 200 mA. For 90 min. Membranes were blocked in TBST containing 5% milk for 1 h. at RT and incubated at 4° C. overnight with the following primary antibodies: 1:1000 monoclonal rabbit IgG RARG (Abcam, ab187159), 1:1000 polyclonal rabbit IgG TOP2B (Abcam, ab125297), 1:5000 polyclonal rabbit IgG β-Tubulin (Sigma, T2200), 1:5000 monoclonal mouse IgG2a β-Actin (Sigma, A5316). The membrane was washed three times for 10 min with TBST and incubated with the appropriate secondary antibody: 1:5,000 HRP-goat anti-mouse IgG or HRP-goat anti-rabbit IgG (GE NA931V and NA934V) for 1 h. at RT. After three additional washes with TBST, membranes were developed by chemiluminiscence (SuperSignal West Pico, Thermo Scientific). Signals were captured using a CCD camera-based imager (Azure Biosystems) and quantified using Image J software. Mice heart tissues were harvested and homogenized using lysis buffer (80 mM NaCl, 0.05% Triton X, 1 mM EDTA, 20 mM HEPES, 0.5% sodium deoxycholate, 1 mM DTT, 20 mM β-glycerophosphate) with TissueLyser LT (Qiagen) and centrifuged at 10,000 rpm for 15 min at 4° C. Proteins were quantified with Bradford (Bio-Rad) and separated by TrisGlycine SDS/PAGE (Bio-Rad). Transferred proteins on nitrocellulose membrane were probed against TOP2B (R&D Systems), phosphorylated ERK1/2 (Cell Signaling Technologies), BCL2 (Santa Cruz Biotechnology), and GAPDH (Advanced ImmunoChemical).
(§1) Mouse model of doxorubicin-induced cardiomyopathy and drug administration. […] For the control group, we treated mice with corn oil in the same schedule as agonist administration. We recorded an echocardiogram once a week (day 0, day 7, day 14, and day 21) and terminated the experiment at day 21. Hearts were harvested for western blot analyses as mentioned above.

C57BL/6J Mice = assay: mouse model of doxorubicin-induced cardiomyopathy, echocardiography; assay type: in vivo; details: doxorubicin 3 mg kg^−1 i.p. twice weekly for 3 weeks, agonist 12 mg kg^−1 oral once a day, at three weeks
Source text: as §1
Echocardiographic evaluation. Mice were studied at baseline and weekly during the protocol under light anesthesia with isoflurane (induction 3%, maintenance 1.5%). 2D images in the parastemal short axis were obtained with a GE Vivid 7 ultrasound system (GE Healthcare) equipped with a 13 MHz transducer. Left ventricular end-systolic (LVESD) and end-diastolic (LVEDD) dimensions were measured and left ventricular fractional shortening (FS) was calculated.

RARG-WT hiPSC-CMs = details: RARG-WT hiPSC-CMs, agonist 1 μM, 72 h doxorubicin
Method: as §2

ERK1/2 = assay: MSD analysis of phosphorylated ERK in hiPSC-CMs; assay type: cell-based, human; details: Control hiPSC-CMs treated with doxorubicin 24 h, with or without pre/co-treatment
Method: MSD analysis of phosphorylated ERK. hiPSC-CMs were collected in lysis buffer (150 mM NaCl, 1% TritonX-100, 50 mM Tris-HCl, pH 8.0) supplemented with Phosphatase Inhibitor II (1:100, Sigma-Adrich), Phosphatase Inhibitor Cocktail 3 (1:100, Sigma-Adrich), 1 mM NaVO4 and protease inhibitors (cOmplete, ROCHE). We centrifuged the samples at 50,000 g for 15 min. at 4° C. to precipitate and discard the insoluble material and the protein concentration in the supernatant was quantified using BCA assay (Thermo Scientific) following manufacturer's instructions. 2.5 μg protein/sample were analyzed using the MSD Phospho(Thr202/yr204; Thr185/Tyr187)/Total ERK1/2 Assay Whole Cell Lysate Kit (Meso Scale Discovery, K15100D-1), according to manufacturer's recommendations. The ratio of phosphorylated ERK was normalized to Total ERK1/2 signal, and analyzed using Prism 7.0 software (GraphPad).

control hiPSC-CMs = details: 1 μM CD1530 and 30 μM U0126, Control hiPSC-CMs, 72 h doxorubicin
Method: as §2

SMILES | LD50 (MCF7) | pERK in the murine hearts [1] | cardiac function (fractional shortening) compared with vehicle treatment (C57BL/6J Mice) | increase of doxorubicin LD50 (RARG-WT hiPSC-CMs) [fold] | BCL2 in the murine hearts [1] | TOP2B in the murine hearts [1] | pERK (ERK1/2) | effect of ERK signaling inhibition on the protective effect of CD1530 (control hiPSC-CMs)
CC1=C(/C=C/C(C)=C/C=C/C(C)=C/C(=O)O)C(C)(C)CCC1 [ATRA, 3,7-Dimethyl-9-(2,6,6-trimethyl-1-cyclohexen-1-yl)-2E,4E,6E,8E-nonatetraenoic acid] | 0.355 µM | significantly increased | marginally improved |  |  |  |  | 
O=C(O)c1ccc2cc(-c3ccc(O)c(C45CC6CC(CC(C6)C4)C5)c3)ccc2c1 [CD437, 6-(4-Hydroxy-3-tricyclo[3.3.1.13,7]dec-1-ylphenyl)-2-naphthalenecarboxylic acid] | 0.343 µM |  |  |  |  |  |  | 
O=C(O)c1ccc(-c2ccc3cc(O)c(C45CC6CC(CC(C6)C4)C5)cc3c2)cc1 [CD1530, 4-(6-Hydroxy-7-tricyclo[3.3.1.13,7]dec-1-yl-2-naphthalenyl)benzoic acid] | 0.275** μM | significantly increased | significantly higher | 4 | significant upregulation | modest but non-significant downregulation | significant increase in pERK; also recorded: significant upregulation of ERK expression | 
N#CC(=C(/N)Sc1ccccc1N)/C(C#N)=C(\N)Sc1ccccc1N [U0126] |  |  |  |  |  |  |  | completely abolished the protective effect of CD1530

— patent publication US11135236B2, “Retinoic acid receptor gamma agonists to attenuate anthracycline-induced cardiotoxicity” (Northwestern University, priority 2018, dated 2021)
